Experimental data as given in US20080118589A1, “Pharmaceutical formulations of rhodiola crenulata and methods of use thereof” (priority 2005, published 2008).

Experiments:
MDA-MB-231 Cells [1] = assay: MTS assay, growth arrest by retinoids +/-Rhodiola; format: cell-based, human; settings: for chemosensitivity (MTS assay): retinoid with Rhodiola, data not shown
Procedure: Rhodiola crenulata extracts were administered to MDA-MB-231 cells in the presence or absence of either 1 μM or 10 μM all trans retinoic acid (ATRA), and cell viability/cytotoxicity was monitored using the MTS assay, as described above, and monitored for absorbance at 490 nm as indicative of chemosensitivity/resistance to the ATRA administered.

[2] = biological target: T1, telomerase activity in MDA-MB-231 breast cancer cells (Homo sapiens, UniProt O14746); assay: Telomerase activity (qPCR); format: cell-based; settings: Rhodiola crenulata 100 μg/mL, tamoxifen 10 μM
T1 construct: telomerase activity in human MDA-MB-231 breast cancer cells; endogenous in cells; host or cells: MDA-MB-231
T1 sequence (O14746 whole entry): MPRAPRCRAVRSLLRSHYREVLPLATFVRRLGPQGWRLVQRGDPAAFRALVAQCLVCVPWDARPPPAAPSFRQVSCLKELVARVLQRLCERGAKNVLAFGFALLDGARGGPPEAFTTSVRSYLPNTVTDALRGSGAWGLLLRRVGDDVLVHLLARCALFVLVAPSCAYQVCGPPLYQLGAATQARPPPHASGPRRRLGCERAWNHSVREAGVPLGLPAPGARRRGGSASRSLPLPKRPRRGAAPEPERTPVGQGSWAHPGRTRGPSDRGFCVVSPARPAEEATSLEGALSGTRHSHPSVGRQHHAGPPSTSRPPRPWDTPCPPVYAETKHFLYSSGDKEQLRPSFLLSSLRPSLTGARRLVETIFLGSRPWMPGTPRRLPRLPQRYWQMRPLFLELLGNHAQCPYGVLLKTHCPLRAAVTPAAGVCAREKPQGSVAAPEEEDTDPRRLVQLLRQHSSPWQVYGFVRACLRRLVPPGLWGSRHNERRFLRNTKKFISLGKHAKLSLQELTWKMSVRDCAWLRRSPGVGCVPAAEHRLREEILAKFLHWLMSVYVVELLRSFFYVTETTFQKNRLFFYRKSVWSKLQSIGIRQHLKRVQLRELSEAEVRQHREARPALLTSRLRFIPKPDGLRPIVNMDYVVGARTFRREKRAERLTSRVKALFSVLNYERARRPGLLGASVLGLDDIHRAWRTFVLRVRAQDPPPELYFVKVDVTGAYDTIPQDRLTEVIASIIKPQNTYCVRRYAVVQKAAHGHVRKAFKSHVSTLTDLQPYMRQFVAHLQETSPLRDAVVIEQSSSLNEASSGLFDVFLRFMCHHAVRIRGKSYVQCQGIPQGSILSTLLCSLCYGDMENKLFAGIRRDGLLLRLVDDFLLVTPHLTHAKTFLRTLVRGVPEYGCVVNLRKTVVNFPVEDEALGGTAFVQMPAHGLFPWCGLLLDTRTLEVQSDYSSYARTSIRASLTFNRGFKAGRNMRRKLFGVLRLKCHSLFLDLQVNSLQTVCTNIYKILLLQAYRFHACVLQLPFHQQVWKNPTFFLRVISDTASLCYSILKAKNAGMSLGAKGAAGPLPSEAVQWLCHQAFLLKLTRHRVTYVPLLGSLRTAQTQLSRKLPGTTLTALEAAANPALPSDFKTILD
Procedure: FIGS. 16 and 17 show the effect of Rhodiola crenulata (100 μg/mL) and tamoxifen (10 μM) on telomerase activity in human MDA-MB-231 breast cancer cells at 24 hr and 72 hr, respectively.
The breast cancer cell lines MDA-MB-231, V14, 76N tert (an immortalized epithelial breast cancer cell line), and 76N p53 239 (immortalized by presence of a dominant negative p53 gene) were treated as indicated above for 24 hours at 100 μg/mL Rhodiola crenulata.

MDA-MB-231 Cells [3] = assay: Death time course with Tamoxifen, Rhodiola, or both; format: cell-based, human
Description: FIG. 8 is a graph showing a Death Time Course of MDA-MB-231 Cells treated with Tamoxifen, Rhodiola, or Tamoxifen plus Rhodiola.
FIG. 8 is similar to FIG. 7, but this experiment involved a time course of MDA-MB-231 Cells treated with Tamoxifen or Rhodiola alone, or Tamoxifen and Rhodiola together.

CC1=C(/C=C/C(C)=C\C=C\C(C)=C\C(=O)O)C(C)(C)CCC1 [9-cis retinoic acid]
chemosensitivity (MTS assay) (MDA-MB-231 Cells [1]): Comparable effects

CC1=C(/C=C/C(C)=C/C=C/C(C)=C/C(=O)O)C(C)(C)CCC1 [ATRA, all trans retinoic acid]
chemosensitivity (MTS assay, absorbance at 490 nm) (MDA-MB-231 Cells [1]; 1 μM or 10 μM ATRA, absence of Rhodiola crenulata): little difference in chemosensitivity

CC1=C(/C=C/C(C)=C/C=C/C(C)=C/C(=O)Nc2ccc(O)cc2)C(C)(C)CCC1 [HPR, N-(4-hydroxyphenyl) retinamide]
chemosensitivity (MTS assay) (MDA-MB-231 Cells [1]): Comparable effects

CC/C(=C(\c1ccccc1)c1ccc(OCCN(C)C)cc1)c1ccccc1 [Tamoxifen, tamoxifen]
telomerase activity ([2]; 24 hr): inhibited telomerase activity | telomerase activity ([2]; 72 hr): telomerase activity is starting to return | percentage of cell death (MDA-MB-231 Cells [3]; 24 hours): increased the percentage of cell death | percentage of cell death (MDA-MB-231 Cells [3]; 48 hours): increased the percentage of cell death
